Laboratory results published in patent US9109048B2, “Inhibition of tumor growth” (priority 1998, dated 2015).
Square brackets hold non-standard residues; d marks the D form. Bip = N[C@@H](Cc1ccc(-c2ccccc2)cc1)C(=O)O

Assays:
C26 colon carcinoma = experiment: Murine C26 colon carcinoma model; format: in vivo, Balb/c mice
Description: The antitumoral activity of the peptide, Ad-LFB 14-31 A2,3,6,10,17,F7,R4,K11,L14-NH2, (NDDO1) was tested in a murine C26 colon carcinoma model established in syngenic Balb/c mice. C26 cells (5×10^6 cells in 50 μl) cells were inoculated subcutaneously on the abdomen of the mice (3 animals) and grown into proper size (20-30 mm^2) before treatment start. At day 7 the tumors were treated intra-tumorally with 0.5 mg/50 μl peptide once a day for three consecutive days and the progression was followed. […] In this mouse C26 tumor cells (5×10^6 cells in 50 μl) were re-inoculated subcutaneously three weeks after peptide treatment.

[1] = system: Meth A cells (murine sarcoma cell line); experiment: Cytotoxicity on Meth A cells, MTT method
Description: Peptide solutions (0.1 ml) were added and the plates incubated at 37° C. for 30 minutes, 4 hours or 24 hours. The cytotoxicity was measured using the MTT method (Mosmann et al., J. Immunol. (1986) 136, 2348-2357).
Cells in the growth phase were harvested and washed in fresh medium and injected subcutaneously into the abdominal region of the mice.
The cytotoxic effect of the peptides on different murine and human tumor cells were measured using the MTT method (Mosmann et al., J. Immunol. (1986) 136, 2348-2357).
MTT is a soluble tetrazolium salt yielding a yellow solution when prepared in media or salt solutions lacking phenol red. Dissolved MTT is converted to an insoluble purple formazan by cleavage of the tetrazolium ring by dehydrogenase enzymes. This water insoluble formazan can be solubilized using isopropanol or other solvents and the dissolved material is measured spectrophotometrically. The absorbance was measured as a function of concentration of converted dye.
Cells were maintained in […] medium containing 10% FBS, 1% L-glutamine and 0.1% penicillin and streptomycin. Cells to be used in the assay were grown to confluency, trypsinated and split to single cell suspension, counted and centrifuged at 1500 rpm for 10 min. […][…] of cell suspension was transferred to each well on a 96-well microtiter plate. The cells were stimulated by adding […] of various concentrations of peptides diluted with assay medium to each well. The final concentrations of peptide were for example: 5, 10, 20, 40, 60, 80, 100, and 200 mg/ml. […] As a negative control only medium was added to the cells, and as a positive control (100% killing) 1% triton X-100 was added. Following an incubation period of 4 h., 20 ml MTT dissolved in PBS at a concentration of 5 mg/ml was added to each well, and the plate was incubated further for 2 h. 130 ml of the supernatant were then removed and […] acid alcohol (0.04-0.1 N HCl in isopropanol) added to each well to dissolve the dark blue crystals. The plate was placed on a shaker for 1 h and read spectrophotometrically at 590 nm in a microtiterplate reader using the Softmaxâ program.

[2] = system: A20 B-cell lymphoma tumor; experiment: Re-inoculation of A20 cells after successful peptide treatment; format: in vivo, Balb/c mice; conditions: no further administration of peptides
Source text: b) Mice in which a A20 B-cell lymphoblast tumor had successfully been eradicated as described above were re-inoculated with 5×10^6 cells of A20 B-cell lymphoma tumor. Untreated mice served as a negative control. No further administration of peptides or any other anti-tumor agents took place.

Meth A tumor cells = experiment: Reinoculation of Meth A cells after successful treatment; format: in vivo, mice; conditions: reinoculation 1 month after successful treatment, no further treatment
[3] = system: A20 B-cell lymphoblastoma; experiment: Adoptive transfer of spleen cells from cured mice; format: in vivo, Balb/c mice; conditions: donors cured with the peptide; versus naive donors
Description: Syngenic Balb/c mice were selected as a model system to investigate the long-term anti-tumor immunity conferred by an initial treatment with a lytic peptide (H2N-WKKWdipKKWK-COOH—Mod 39 (SEQ ID NO: 42)) against A20 B-cell lymphoblastoma. Tumour cells (5×10^6) were inoculated subcutaneously on the abdomen of the mice and grown into proper size (20-30 mm^2) before treatment start. The mice were treated intra-tumorally with 0.5 mg/50 μl peptide once a day for three consecutive days and the progression was followed. Mice that were successfully treated were selected as donors (treated donor) for adoptive transfer of spleen cells, 3 weeks after tumor eradication.
Day 1—Naive acceptor mice were subjected to a Total Body Irradiation (TBI) of 500 cGy in preparation for receiving adoptive transfer of immune cells from spleen donors.
Day 2—Single-cell suspensions of spleenocytes depleted of red blood cells from treated donor mice and naïve mice were prepared as previously described (Ward, B. A. et al., J. Immunology Aughust 1988, vol 141 p 1047), except that sterile H2O was used instead of ammonium chloride to eliminate red blood cells.
Donor spleen cells (approximately 40 million) were injected i.v. into the tail vein of acceptor mice according to the methods described in Bogen B. et al., Eur J Immunology, May 1983, vol 13(5), pages 353-359. […]

[4] = format: physicochemical
Source text: Peptide W3714, with three additional tryptophan residues (a total of five tryptophan residues in the peptide), has decreased activity. […] This has been physically observed during MIC testing procedures when the peptide tended to precipitate at high concentrations.

## Ad-LFB 14-31 A2,3,6,10,17,F7,R4,K11,L14-NH2 [NDDO1]
C26 colon carcinoma; 3 animals, 0.5 mg/50 μl intra-tumorally once a day for three days
  primary effect on C26 colon carcinoma: In one mouse full tumor regression was obtained
C26 colon carcinoma; re-inoculated three weeks after peptide treatment, no further treatment
  effect of re-inoculating C26 cells: A regression of the tumor after an initial growth was obtained without any further treatment

## H2N-FKCRRWQWRMKKLGAPSITCVRRAF-COOH (H-FKCRRWQWRMKKLGAPSITCVRRAF-OH; ends and bridges not checked) [Cyclic LFB, enzymatically cleaved fragment of bovine lactoferrin, from Morinaga, reference compound]
[1]; Meth A cells 1×10^4/ml, 4 h incubation (FIG. 2)
  concentration at which Meth A cells were effectively killed: higher than 0.8 mg/ml
[1]; at concentrations higher than 0.8 mg/ml
  Meth A cells killed: more than 99%
[2]
  tumor growth after re-inoculation of A20 cells: no further growth occurred
Meth A tumor cells
  tumor establishment after reinoculation of Meth A cells: some storm of adaptive immunity is shown

## H2N-KAAKKAbipKAAKAbipKKAA-COOH (H-KAAKKA[Bip]KAAKA[Bip]KKAA-OH; SMILES C[C@H](NC(=O)[C@H](C)NC(=O)[C@H](CCCCN)NC(=O)[C@H](CCCCN)NC(=O)[C@H](Cc1ccc(-c2ccccc2)cc1)NC(=O)[C@H](C)NC(=O)[C@H](CCCCN)NC(=O)[C@H](C)NC(=O)[C@H](C)NC(=O)[C@H](CCCCN)NC(=O)[C@H](Cc1ccc(-c2ccccc2)cc1)NC(=O)[C@H](C)NC(=O)[C@H](CCCCN)NC(=O)[C@H](CCCCN)NC(=O)[C@H](C)NC(=O)[C@H](C)NC(=O)[C@@H](N)CCCCN)C(=O)O) [Peptide C12]
[2]
  time until the re-inoculated A20 tumor completely disappeared: 6 days

## H2N-WKKWdipKKWK-COOH [L-Mod 39]
[2]
  time until the re-inoculated A20 tumor completely disappeared: 10 days

## H2N-WKKWdipKKWK-COOH [Model 39]
[3]
  rejection of implanted A20 tumors in acceptors of spleen cells from cured mice: able to reject implanted tumors

## H-FKWRRWWWRMKKLWA-OH [LFBW3,7,14, H2N-Phe-Lys-Trp-Arg-Arg-Trp-Trp-Trp-Arg-Met-Lys-Lys-Leu-Trp-Ala-COOH]
[4]
  solubility in aqueous solutions: less soluble in aquous solutions
